Experimental data taken from patent US20120065165A1, “COMPOSITIONS AND METHODS OF TREATING ENDOTHELIAL DISORDERS” (ARGINETIX, INC, priority 2008, published 2012).
Read-outs that look alike come from different tables or passages of the source.

Key:
arginase [1] = details: internal anal sphincter; cited from earlier work
PDE1 = details: pulmonary vascular tissue; cited from earlier work
patients with PAH [2] = details: three times daily; cited from earlier work
[3] = system: lambs with chemically induced PAH; details: cited from earlier work
[4] = system: hypoxia-induced pulmonary hypertension; details: cited from earlier work
patients with PAH [5] = details: oral administration; cited from earlier work
rat aortic tissues = assay: cGMP levels in aortic rings of old rats incubated with sildenafil and ABH (cGMP EIA); format: cell-based; details: ABH 0 nM
Protocol: The source of tissue was old (22 to 24 months) male Fischer 344 rats purchased from National Institute for Aging (NIA). The rats were anesthetized in an isoflurane chamber and euthanized. The entire length of the aorta (thoracic, arch, abdominal) were dissected out and cleaned free of connective tissue. These aorta were then sectioned into ˜3 mm long rings. Samples were collected from 2 rats and pooled. […] Rings were incubated in varying concentrations of sildenafil (0-2000 nM) and ABH (0-500 nM) prepared in 200 μL Krebs buffer for 10 min at 37° C. The rings were then snap frozen in liquid nitrogen following treatment. The next day, samples were homogenized in 200 μL 6% TCA buffer (prepared by adding TCA to DI water) at 4° C. for extraction of cyclic nucleotides. The samples were then centrifuged at 12,000 rpm for 5 min at 4° C. Protein pellets were re-dissolved in PBS to determine protein concentration, and supernatant was reserved for cGMP detection. […] ABH (MW 211.45): A stock solution of ABH at a concentration of 100 mM was prepared by dissolving 21.1 mg of ABH into 1 ml Krebs solution. This was used to prepare 5 ml of a 1 mM stock. 200 μL of the 1 mM solution were dispensed into column 12 of a 96-well plate. Six 2× dilutions were prepared in the plate. 200 μL Krebs were dispensed in column 5 to get a concentration range of 0-1000 nM (2× of final concentration). Sildenafil (MW 474.5): A stock solution of sildenafil at a concentartion of 100 mM was prepared by dissolving 47.4 mg of sildenafil into 1 ml Krebs solution; 5 ml of 2 mM stock was prepared from this. Row A received 200 μL of Krebs buffer (0 mM sildenafil), mixed well, and adjusted to a final volume of 200 μL. Next, 200 μL of the 2 mM sildenafil stock was dispensed into row H of the 96 well plate already containing the ABH dilutions ([…]). Six 2× dilutions were prepared from this to get the final concentration ranges for the two drugs. cGMP levels were determined with a cGMP kit (Amersham cGMP Enzyme immunoassay Biotrak (EIA) System Cat #RPN226) and run in accordance with the manufacture's recommendations. The assay uses a competitive fluorescent immunoassay format to measure levels of cGMP. It combines the use of a peroxidase-labelled cGMP conjugate, a specific antiserum which can be immobilized on to pre-coated microplates, and a one-pot stabilized substrate solution. […] In the absence of cGMP most of the HRP conjugate is bound to the antibody and yields a high fluorescence. Increasing concentrations of cGMP competitively decreases the binding of the HRP conjugate, decreasing the measured fluorescence (HRP activity). […] The plate was then incubated for 2 hrs at room temperature with shaking after which it is washed and the fluorescent substrate is added. The plate was incubated for an additional 10 min and then read on a Molecular Devices Gemini EM plate reader set at Ex 530 nm, Em 590 nm (endpoint mode). The signal is reported to be stable for up to 24 hrs, but was generally read within 2 hrs. […] These values were calculated based on the resultant ratio of fluorescence reading of sample divided by fluorescense reading with no cGMP (pmols/mg). For each concentration combination of sildenafil and ABH administered to cells, absorbance (OD at 450 nm) was measured. From these values, the absorbance adjusted for non-specific binding (NSB) for each sample (OD-NSB(B)) was determined from the absorbance (B) divided by the absorbance without cGMP (Bo). Using this value and the standard curve for cGMP, the log (fmol) is found and, after adjusting for the quantity of protein, the pmols of cGMP/mg protein is calculated.

[6] = in vivo; cited from earlier work
arginase [7] = details: cited from earlier work
old rat aortic segments = assay: NO production in aortic rings (slope of DAF fluorescence); format: cell-based; details: old/aged rat aorta
Description: ABH improves endothelial function by inhibiting arginase and consequently increasing NO production (by increasing L-arginine availability to eNOS) and decreasing levels of ROS (by preventing eNOS uncoupling). […] Aortic rings were dissected and pinned down, endothelial side up, on a silastic coated culture dish, and then exposed to either the NO-sensitive dye DAF, or the O2-sensitive dye DHE. Since the interaction of NO or ROS with its specific dye is cumulative, the rate of production of each species is proportional to the slope of the fluorescence emitted from the dye as measured using epifluorescence microscopy. […] SNP endothelial-independent NO donor was included as a control (Santhanam et al 2007).

SMILES: N=C(NO)NCCC[C@H](N)C(=O)O [L-HO-Arg, Nω-hydroxy-L-arginine]
- NANC relaxation suppressed by excess arginase (arginase [1]): restored

SMILES: CCOC(=O)C1=C[C@]2(CC)CCCN3CCc4c(n1c1ccccc41)[C@@H]32 [vinpocetine]
- NO-stimulated dilation (PDE1): enhances
- basal cGMP or cAMP (PDE1): little effect

SMILES: CCCc1nn(C)c2c(=O)[nH]c(-c3cc(S(=O)(=O)N4CCN(C)CC4)ccc3OCC)nc12 [sildenafil]
- WHO functional class (patients with PAH [2]): improved
- exercise capacity (6-minute walk test) (patients with PAH [2]): improved
- pulmonary arterial pressure (patients with PAH [2]): decreased
- pulmonary vascular resistance (patients with PAH [2]): decreased
- pulmonary vasodilator response to inhaled NO ([3]; aerosolized form, lambs with PAH): augmented
- hypoxia-induced pulmonary hypertension ([4]; mice lacking NOS3 (eNOS)): little effect
- hypoxia-induced pulmonary hypertension ([4]; mouse, in vivo): substantially ablated
- pulmonary vasodilation (patients with PAH [5]): selective pulmonary vasodilation
- Theoretical response T(x,y) based on an additive effect (rat aortic tissues; sildenafil 31 nM): 0.27 pmol/mg
- pmols of cGMP/mg protein produced P(x,y) (rat aortic tissues; sildenafil 31 nM): 0.27 pmols/mg
- Theoretical response T(x,y) based on an additive effect (rat aortic tissues; sildenafil 125 nM): 2.56 pmol/mg
- pmols of cGMP/mg protein produced P(x,y) (rat aortic tissues; sildenafil 125 nM): 2.56 pmols/mg
- Theoretical response T(x,y) based on an additive effect (rat aortic tissues; sildenafil 500 nM): 0.88 pmol/mg
- pmols of cGMP/mg protein produced P(x,y) (rat aortic tissues; sildenafil 500 nM): 0.88 pmols/mg
- Theoretical response T(x,y) based on an additive effect (rat aortic tissues; sildenafil 2000 nM): 0.80 pmol/mg
- pmols of cGMP/mg protein produced P(x,y) (rat aortic tissues; sildenafil 2000 nM): 0.80 pmols/mg

SMILES: CCCOc1ccccc1-c1nc2nn[nH]c2c(=O)[nH]1 [Zaprinast]
- pulmonary vasodilation induced by inhaled NO ([3]; lambs with chemically induced PAH): potentiates and markedly prolongs

SMILES: N=C(NO)NCC[C@H](N)C(=O)O [nor-NOHA, N^ω-hydroxy-nor-L-arginine]
- bioavailability [6]: poor bioavailability
- in vivo inhibition of serum arginase (arginase [7]): inhibition of serum arginase

SMILES: N[C@@H](CSCCB(O)O)C(=O)O [BEC, S-(2-Boronoethyl)-L-cysteine]
- NO production (slope of the DAF fluorescence) (old rat aortic segments): augments NO production
